Data from article PMC9318686, “Identification of NAPRT Inhibitors with Anti-Cancer Properties by In Silico Drug Discovery” (Pharmaceuticals, 2022).

Molecular target: T1, recombinant human NAPRT (nicotinic acid phosphoribosyltransferase) (Homo sapiens, UniProt Q6XQN6)
T1 construct: dimer
T1 sequence (Q6XQN6 1-538): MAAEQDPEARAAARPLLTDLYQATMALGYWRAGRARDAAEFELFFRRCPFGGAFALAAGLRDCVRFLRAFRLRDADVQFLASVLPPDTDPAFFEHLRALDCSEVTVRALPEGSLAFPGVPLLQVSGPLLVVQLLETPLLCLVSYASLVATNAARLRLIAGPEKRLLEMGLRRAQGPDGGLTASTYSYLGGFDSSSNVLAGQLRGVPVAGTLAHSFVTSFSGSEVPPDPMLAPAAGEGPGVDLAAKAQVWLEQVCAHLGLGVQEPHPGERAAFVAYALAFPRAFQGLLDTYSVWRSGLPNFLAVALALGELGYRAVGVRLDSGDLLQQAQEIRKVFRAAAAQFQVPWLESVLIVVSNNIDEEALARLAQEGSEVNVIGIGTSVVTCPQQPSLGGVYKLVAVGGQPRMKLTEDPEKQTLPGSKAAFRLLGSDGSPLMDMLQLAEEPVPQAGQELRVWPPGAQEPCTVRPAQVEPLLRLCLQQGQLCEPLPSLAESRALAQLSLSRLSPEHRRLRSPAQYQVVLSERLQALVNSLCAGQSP
Assay: HPLC of NAMN formation, Michaelis-Menten fit
Type: biochemical
Excerpt: HPLC of NAMN formation, Michaelis-Menten fit on recombinant human NAPRT (nicotinic acid phosphoribosyltransferase)

Compared with `O=C(N[C@@H](C(=O)c1ccccc1)n1cnccc1=O)c1ccccc1` [compound 1], `O=C(O)c1cnccc1O` [compound 8] is 7.4-fold lower in Ki: 2280 µM for the first, 308 µM for the second. The second binds more tightly here.

In the case of `O=C(O)c1cnsn1` [compound 19], the Ki is reported as 295 µM.
